Data as given in US10959955B1 (RHOSHAN PHARMACEUTICALS, INC., priority 2017, dated 2021).
In brackets after ≈: the same amount, converted by molar mass.

Legend:
[1] = cited from earlier work
[2] = test system: Thromboxane B2; settings: in 5 minutes of post bolus injection; 5 ml of 100 mg/ml ASA injected in less than 2 minutes; cited from earlier work
[3] = Bulk solution stability of Example 3C at 25° C.; assay type: physicochemical
Procedure: All three solutions were filtered and 5 ml each placed in a Type I flint vials and lyophilized. […] The lyophilized cakes in all vials were shrunken and collapsed. […] Since lyophilization of the ASA-lysine solution was carried out at about −30° C., all water was removed by sublimation at this low temperature. It is not known whether degradation took place during the lyophilization or during the preparation of the bulk solution or combination of both. Therefore, we have investigated the bulk solution stability of example 3C at 25° C.

[4] = pH and appearance of bulk and reconstituted solutions of ASA co-lyophilized with bases in TBA/water; assay type: physicochemical; settings: 20 mg/ml aspirin in 80% TBA/20 water
Description: The pH of the solution was raised to 6.5 using 1N sodium hydroxide. Phase separation was observed, probably due to salting out of inorganic base from TBA/Water system. In the next trial, we first raised the pH of the solution to 5.0 using 1N sodium hydroxide, and then sodium phosphate, dibasic to raise the pH to 6.5. Sodium phosphate, dibasic was used for a better control of pH. Since we still observed phase separation it appears that inorganic bases or buffers may not be compatible with a 80% TBA/20% water system. We may require more water, for example, 70% TBA/30% water in the system to dissolve the alkalinizing agents.
The reconstituted solution pH was 4.71.
In the next trial, we investigated incorporation of […] to facilitate complete neutralization. […] Arginine was, then, slowly added to the slurry to neutralize aspirin. […] The apparent pH of the bulk solution was 6.49. 5 ml aliquots placed in flint vials and lyophilized. Upon completion of lyophilization, the content of vial was reconstituted with 5 ml of Water for Injection. […] The reconstituted solution pH was 4.8.
Based on the above studies, it was evident that larger amount of base is needed to neutralize ASA in the preferred solvent system. To incorporate more base in the bulk solution, we explored use of 60/40 TBA/water system as solvent for lyophilization. […] The apparent pH of the bulk solution was 6.31. […]

[5] = Reconstitution of ASA lyophile with various basifying agents; assay type: physicochemical; settings: basifying agent diluents of examples 13 and 14, without polysorbate 80
Procedure: One aspect of this invention was to produce a stable lyophilized product and a solvent system with sufficient bulk solution stability to withstand an aseptic processing and lyophilization process. The lyophilized products we have manufactured in most of these studies were made with 80% TBA/20% to 60% TBA/40% water solvent system and the bulk solution for lyophilization stable for 24 hours with minimal degradation. We have achieved this goal. […] The reconstitution studies were done by reconstituting a 100 mg vial with 5 ml of solution containing a buffer or a basifying agent or a combination of both.

[6] = Tonicity and pH of reconstituted solutions of ASA; assay type: physicochemical
Description: Since the aspirin product will be administered via an IV bolus route, tonicity of the final reconstituted solution is acritical factor to avoid pain at the injection site.

[7] = test system: platelet aggregation; settings: following oral dosing; cited from earlier work
[8] = oral tablets; cited from earlier work
[9] = intravenous vs oral; cited from earlier work
[10] = physchem
Procedure: The batch volume was made up to 100 ml with addition of 70/30 TBA/water. […] 5 ml aliquots were placed in flint vials and lyophilized. Upon completion of lyophilization, the contents of the vial were reconstituted with 5 ml of Water for Injection.

## CC(=O)Oc1ccccc1C(=O)O.NCCCCC(N)C(=O)O [aspirin lysine salt]
[1]; Bayer sterile dry powder product
  shelf life: one year
[2]
  Thromboxane B2 inhibited: greater than 95%

## o-acetylsalicylic acid [Aspirin]
[3]; 4 hours
  Area % of Salicylic Acid: about 9 Area %
[3]; Initial
  Area % of Salicylic Acid: about 3 Area %
[4]
  apparent pH of the bulk solution: 2.9
[5]
  appearance of reconstituted solution: did not show any haziness
[6]; 12 mg/mL Na2HPO4 and 27 mg/mL of Tris buffer with 0.05% Tween80, 10 mL, ASA 50 mg/mL
  Osmolality (m.Osm/Kg): 717 m.Osm/Kg
[6]; 17.5 mg/mL Tris Buffer with 0.05% Tween80, 20 mL, ASA 25 mg/mL
  Osmolality (m.Osm/Kg): 269 m.Osm/Kg
[6]; 20 mg/mL Na2HPO4 with 0.05% Tween80, 25 mL, ASA 20 mg/mL
  Osmolality (m.Osm/Kg): 481 m.Osm/Kg
[6]; 30 mg/mL of lysine and 7.5 mg/mL of Tris buffer, 20 mL, ASA 25 mg/mL
  Osmolality (m.Osm/Kg): 338 m.Osm/Kg
[6]; 34 mg/mL Tris Buffer with 0.05% Tween80, 10 mL, ASA 50 mg/mL
  Osmolality (m.Osm/Kg): 549 m.Osm/Kg
[6]; 34 mg/mL Tris Buffer, 10 mL, ASA 50 mg/mL
  Osmolality (m.Osm/Kg): 540 m.Osm/Kg
[6]; 40 mg/mL L-Lysine, 20 mL, ASA 25 mg/mL
  Osmolality (m.Osm/Kg): 380 m.Osm/Kg
[6]; 40 mg/mL of L-Lysine with 0.05% Tween80, 20 mL, ASA 25 mg/mL
  Osmolality (m.Osm/Kg): 388 m.Osm/Kg
[6]; 50 mg/mL Na2HPO4 with 0.05% Tween80, 10 mL, ASA 50 mg/mL
  Osmolality (m.Osm/Kg): 1172 m.Osm/Kg
[6]; 68 mg/mL Tris Buffer with 0.05% Tween80, 10 mL, ASA 100 mg/mL
  Osmolality (m.Osm/Kg): 1060 m.Osm/Kg
[6]; 68 mg/mL Tris Buffer with 0.05% Tween80, Aspirin API 1 g, 10 mL, ASA 100 mg/mL
  Osmolality (m.Osm/Kg): 1036 m.Osm/Kg
[1]; aqueous aspirin solution
  pH of the solution: about 2.5
[1]; concentrated aqueous bulk solution
  time to 10% of potency loss: about 1.3 hours
[1]; pH 2.5
  degradation rate: about 2 % per day
[7]
  onset of inhibition of platelet aggregation: approximately 40 minutes
[8]
  initial onset of pain relief: about 30 minutes
[9]
  effectiveness of intravenously administered solution versus orally administered equal amount: four times as high

## NCCCC[C@H](N)C(=O)O [lysine]
[10]; organic solvent or mixture
  solubility: 2 mg/mL (≈ 13.7 mM)

## tris(hydroxymethyl)aminomethane
[10]; 70/30 TBA/water, neat free base without ASA
  solubility: 5 mg/mL
